Converted amounts (≈) assume the structure as drawn.
Assays:
[1] = system: Colletotrichum horii; assay: microbe, parasite or virus in culture; format: cell-based; details: 24 hours at 25° C., read-out: MIC, F61
[2] = system: Botryoshpaeria dothidea; assay: organism not typed; format: cell-based; details: 24 hours at 25° C.; read-out: MIC, F61
[3] = system: Endothia parasitica; assay: microbe, parasite or virus in culture; format: cell-based; details: Cryphonectria parasitica; 24 hours at 25° C.; read-out: MIC, F61
[4] = system: Phytophthora cambivora; assay: microbe, parasite or virus in culture; format: cell-based; details: 24 hours at 25° C., read-out: MIC, F61
[5] = system: Magnapothe oryzae; assay: organism not typed; format: cell-based; details: 24 h, read-out: MIC, F61 (μg/ml)
[6] = system: Fusarium oxysporum f. sp. cucumerinum; assay: microbe, parasite or virus in culture; format: cell-based; details: 24 hours at 25° C., read-out: MIC, F61
[7] = system: Botryritis cinerea; assay: organism not typed; format: cell-based; details: 24 hours at 25° C.; read-out: MIC, F61
[8] = system: Phytophthora cactorum; assay: microbe, parasite or virus in culture; format: cell-based; details: 24 hours at 25° C., read-out: MIC, F61
[9] = system: Fusarium oxysporum f. sp. raphani; assay: microbe, parasite or virus in culture; format: cell-based; details: 24 hours at 25° C., read-out: MIC, F61
[10] = system: Fusarium graminearum; assay: microbe, parasite or virus in culture; format: cell-based; details: 24 h, read-out: MIC, F61 (μg/ml)
[11] = system: Phythium ultimum; assay: organism not typed; format: cell-based; details: 24 hours at 25° C.; read-out: MIC, F61
[12] = system: Gaeumannomyces graminis; assay: microbe, parasite or virus in culture; format: cell-based; details: 24 hours at 25° C., read-out: MIC, F61
[13] = system: Curvularia lunata; assay: microbe, parasite or virus in culture; format: cell-based; details: 24 hours at 25° C., read-out: MIC, F61
[14] = system: Phytophthora cinnamomi; assay: microbe, parasite or virus in culture; format: cell-based; details: 24 hours at 25° C., read-out: MIC, F61
[15] = system: Rhizoctonia solani; assay: microbe, parasite or virus in culture; format: cell-based; details: 24 hours at 25° C., read-out: MIC, F61
[16] = system: Sclerotinia homoeocarpa; assay: microbe, parasite or virus in culture; format: cell-based; details: Clarireedia homoeocarpa; 24 hours at 25° C.; read-out: MIC, F61
[17] = system: Valsa ceratosperma; assay: microbe, parasite or virus in culture; format: cell-based; details: Cytospora ceratosperma; 24 hours at 25° C.; read-out: MIC, F61
[18] = system: Magnaporthiopsis poae; assay: microbe, parasite or virus in culture; format: cell-based; details: 24 hours at 25° C., read-out: MIC, F61
[19] = system: Rhizoctonia solani; assay: In vivo control of rice sheath blight (RSB); details: rice cultivar Nakdong
Description: The control efficacy of Streptomyces sp. JCK-6141 strain against rice sheath blight (RSB) was examined in vivo. As an experimental plant, the rice cultivar Nakdong (Oryza sativa L.) was used.
One day before pathogen inoculation, the Nakdong rice plants were treated by soil drenching with 10 ml of each of the 3-fold and 9-fold dilutions of the Streptomyces sp. JCK-6141 strain culture in distilled water. After putting an appropriate amount of Nakdong rice bran treated with the dilutions was put into a 1-L culture bottle and sterilized, followed by evenly inoculating finely ground mycelial mass of cultured Rhizoctonia solani into the pots where the rice plants had been grown. After inoculation, incubation was carried out for 3 days in a humid chamber (25° C.) and then for 4 days in an incubator with a relative humidity of 80%. Examination was made of the onset of the disease. As a control, the synthetic chemical fungicide Flutolanil was used at 20 μg/ml or 50 μg/ml concentration.

[20] = system: Puccinia recondite; assay: In vivo control of wheat leaf rust; details: wheat cultivar Eunpa, 7 days after inoculation

CCCCCC[C@@]1(OC(=O)CCC(=O)O)CC[C@]2(CC[C@H](C)[C@@H](C/C=C(C)/C=C/[C@H](O)[C@@H](C)/C=C/C(=O)O)O2)O[C@H]1/C=C/C(C)=C/C(=O)O [F61, reveromycin E]
MIC [1]: 0.049 µg/mL (≈ 0.0711 µM) | MIC [2]: 0.098 µg/mL (≈ 0.142 µM) | MIC [3]: 1.56 µg/mL (≈ 2.26 µM) | MIC [4]: 0.195 µg/mL (≈ 0.283 µM) | MIC [5]: 0.78 µg/mL (≈ 1.13 µM) | MIC [6]: 1.56 µg/mL (≈ 2.26 µM) | MIC [7]: 1.56 µg/mL (≈ 2.26 µM) | MIC [8]: 0.195 µg/mL (≈ 0.283 µM) | MIC [9]: 1.56 µg/mL (≈ 2.26 µM) | MIC [10]: 0.195 µg/mL (≈ 0.283 µM) | MIC [11]: 1.56 µg/mL (≈ 2.26 µM) | MIC [12]: 3.12 µg/mL (≈ 4.54 µM) | MIC [13]: 0.78 µg/mL (≈ 1.13 µM) | MIC [14]: 0.39 µg/mL (≈ 0.566 µM) | MIC [15]: 1.56 µg/mL (≈ 2.26 µM) | MIC [16]: 0.195 µg/mL (≈ 0.283 µM) | MIC [17]: 0.78 µg/mL (≈ 1.13 µM) | MIC [18]: 0.0244 µg/mL (≈ 0.0354 µM)

CC(C)Oc1cccc(NC(=O)c2ccccc2C(F)(F)F)c1 [Flutolanil]
RSB Control (%) ([19]; 20 μg/ml): 100.0 ± 0.0 a % | RSB Control (%) ([19]; 50 μg/ml): 100.0 ± 0.0 a % | Wheat leaf rust control (%) ([20]; 20 μg/ml): 73.3 ± 6.7 b % | Wheat leaf rust control (%) ([20]; 50 μg/ml): 100.0 ± 0.0 a %

— US20260223859A1, “PLANT DISEASE CONTROL COMPOSITION COMPRISING CULTURE BROTH OF STREPTOMYCES SP. JCK-6141 STRAIN OR EXTRACT OF CULTURE BROTH OF STRAIN, PREPARATION METHOD THEREFOR AND PLANT DISEASE CONTROL METHOD” (priority 2020, published 2026)
